Some test systems named below: SK-OV-3; NCI-H226; SF-268; COLO 205; MDA-MB-231; UO-31; SNB-19; NCI/ADR-RES; MCF7; CCRF-CEM; 786-0; HT-29; DU-145; LOX IMVI; IGROV-1; SR; Malme-3M.
Assay in all cases: inhibition of tumour cell growth, NCI panel, 48 h

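48-hour exposure; five concentrations; linearly interpolated endpoints. The concentration for 50% growth inhibition is given as GI50.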 Calls of active or inactive are those of the source. Rule as the data show it: active = GI50 up to about 1.1 µM and inactive = higher.

On to `COc1ccc(C(OCC2OC(n3ccc(Oc4c(F)c(F)c(F)c(F)c4F)nc3=O)CC2OP(OCCC#N)N(C(C)C)C(C)C)(c2ccccc2)c2ccc(OC)cc2)cc1` (stereo not drawn), for which the GI50 in the test on SK-OV-3, in the test on NCI-H226, in the test with SF-268, in the test with COLO 205, with MDA-MB-231 and in the test with UO-31 was > 100 µM (inactive) in each case. The GI50 was > 100 µM (inactive) in the test with SNB-19; > 100 µM (inactive) in the test on NCI/ADR-RES; > 100 µM (inactive) with MCF7; 77.3 µM (inactive) in the test on CCRF-CEM; > 100 µM (inactive) with 786-0; > 100 µM (inactive) in the test on HT-29. Also, the GI50 with DU-145, with LOX IMVI, in the test with IGROV-1 and in the test with SR was > 100 µM (inactive) in each case.

Regarding `CC1(C)CC(=O)c2c(nc3c(ccc4ccccc43)c2-c2ccc(NC(=O)CCC(=O)Nc3ccc(-c4c5c(nc6c4ccc4ccccc46)CC(C)(C)CC5=O)cc3)cc2)C1`, the GI50 with SK-OV-3, in the test on NCI-H226, in the test with SF-268, in the test on COLO 205, in the test with MDA-MB-231 and with UO-31 was > 100 µM (inactive) in each case. Further, the GI50 with SNB-19, in the test with NCI/ADR-RES, in the test on MCF7, in the test with CCRF-CEM, in the test on 786-0 and in the test with HT-29 was > 100 µM (inactive) throughout. Besides, the GI50 in the test with DU-145, in the test on LOX IMVI, in the test on IGROV-1 and in the test with SR was > 100 µM (inactive) each time.

With `CCCCCC1CC=CC(=O)O1` (stereo not drawn), the GI50 is 7.53 µM (inactive) with SK-OV-3; 10.6 µM (inactive) in the test with SF-268; 4.06 µM (inactive) in the test on COLO 205; 0.933 µM (active) in the test on Malme-3M; 10.6 µM (inactive) in the test with MDA-MB-231; 8.89 µM (inactive) with UO-31. Moreover, the GI50 in the test on SNB-19 is 10.5 µM (inactive); with NCI/ADR-RES, 5.73 µM (inactive); in the test with MCF7, 6.52 µM (inactive); with CCRF-CEM, 2.39 µM (inactive); in the test on 786-0, 3.85 µM (inactive); in the test with HT-29 it was 3.89 µM (inactive). Also, the GI50 with DU-145 was 17.4 µM (inactive); with LOX IMVI it was 7.62 µM (inactive); in the test with IGROV-1, 2.94 µM (inactive); in the test on SR it was 3.39 µM (inactive).

For the compound `C=C1NC(=O)C(CC(C(=O)C(=O)Nc2c(C)cccc2C(C)(C)C)C(=O)c2ccc3ccccc3c2)C(=O)N1` (stereo not drawn), the GI50 with SK-OV-3, with NCI-H226, with SF-268, in the test on COLO 205, in the test on MDA-MB-231 and in the test on UO-31 was > 100 µM (inactive) throughout. Also, the GI50 in the test on SNB-19, with NCI/ADR-RES, with MCF7, in the test on CCRF-CEM, in the test on 786-0 and with HT-29 was > 100 µM (inactive) in each case. Also, the GI50 with DU-145, in the test on LOX IMVI and in the test on SR was > 100 µM (inactive) in each case.

Regarding `Cc1nc(N)c(N2CCN(S(=O)(=O)N(Cc3ccccc3)Cc3ccccc3)CC2)c(O)n1`, the GI50 with NCI-H226 was 30.1 µM (inactive); with SF-268, 28.6 µM (inactive); with COLO 205, 23.3 µM (inactive); with Malme-3M it was 25.1 µM (inactive); in the test on MDA-MB-231, 62.4 µM (inactive); with UO-31, > 100 µM (inactive). Further, the GI50 in the test with SNB-19 was 25 µM (inactive); in the test with NCI/ADR-RES, 71.3 µM (inactive); with MCF7, 72.3 µM (inactive); in the test on CCRF-CEM, > 100 µM (inactive); with 786-0, 28.9 µM (inactive); in the test with HT-29 it was 26.8 µM (inactive). Besides, the figures for the GI50 with DU-145, in the test with LOX IMVI and in the test with SR were 20.7 µM (inactive), > 100 µM (inactive) and > 100 µM (inactive), respectively.

Source of the values: ChEMBL document CHEMBL1201862, “PubChem BioAssay data set” (2004).
